The target of the experiment is T1, ChU-B laccase (blood-tolerant ChU-B mutant of PM1 laccase) (basidiomycete PM1, UniProt Q12571, F417I/F475E, form not given).
T1 construct: directed-evolution variant; alpha-factor evolved prepro-leader processed, extra N-terminal ETEAEF kept (ETEAEFSIGP...); secreted by Pichia pastoris X-33; 53,939 Da calculated, 62,541 Da glycosylated
The experiment can be described thus: steady-state kinetics, absorbance […] nm. The experiment is classed as biochemical. The following applies: pH 5.0; enzyme from P. pastoris; read-out: ChU-B fromP. pastoris / Km.

T1 sequence (Q12571 entry or part of it F417I/F475E, form open): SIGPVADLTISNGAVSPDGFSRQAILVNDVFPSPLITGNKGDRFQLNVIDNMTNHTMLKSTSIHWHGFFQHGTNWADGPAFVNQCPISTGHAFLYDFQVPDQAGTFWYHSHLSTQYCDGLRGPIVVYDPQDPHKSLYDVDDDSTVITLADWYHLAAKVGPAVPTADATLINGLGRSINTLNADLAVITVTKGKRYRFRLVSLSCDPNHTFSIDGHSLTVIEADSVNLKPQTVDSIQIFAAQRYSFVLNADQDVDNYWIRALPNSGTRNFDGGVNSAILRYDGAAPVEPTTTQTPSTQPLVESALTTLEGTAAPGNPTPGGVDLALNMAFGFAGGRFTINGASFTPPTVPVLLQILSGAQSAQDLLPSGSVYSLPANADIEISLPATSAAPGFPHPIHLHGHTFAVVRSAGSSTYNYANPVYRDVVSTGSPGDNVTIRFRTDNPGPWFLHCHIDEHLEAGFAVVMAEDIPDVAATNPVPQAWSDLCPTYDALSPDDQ

Consider `COc1cccc(OC)c1O` [DMP], for which the Km came out at 1910 ± 50 µM.

These data come from publication PMC3655043, “Functional expression of a blood tolerant laccase in Pichia pastoris” (BMC Biotechnology, 2013).
